Some results are limits rather than exact numbers.

The text below walks through data of patent publication US10308659B2, “Pyridine derivatives” (Hoffmann-La Roche Inc., priority 2013, dated 2019).

One assay concerns the target human CB2 receptors (Homo sapiens (Human), UniProt P34972). In words: cAMP assay, CHO cells expressing human CB2 receptors. It is filed as cell-based. To be noted: functional cAMP assay, CHO cells expressing human CB2; read-out: EC50 CB2 human. The protocol:
(§1) CHO cells expressing human CB1 or CB2 receptors are seeded 17-24 hours prior to the experiment 50.000 cells per well in a black 96 well plate with flat clear bottom (Corning Costar #3904) in DMEM (Invitrogen No. 31331), 1×HT supplement, with 10% fetal calf serum and incubated at 5% CO2 and 37° C. in a humidified incubator. The growth medium was exchanged with Krebs Ringer Bicarbonate buffer with 1 mM IBMX and incubated at 30° C. for 30 min. Compounds were added to a final assay volume of 100 μl and incubated for 30 min at 30° C. […] The time-resolved energy transfer is measured by a TRF reader (Evotec Technologies GmbH), equipped with a ND:YAG laser as excitation source. The plate is measured twice with the excitation at 355 nm and at the emission with a delay of 100 ns and a gate of 100 ns, total exposure time 10 s at 730 (bandwidth30 nm) or 645 nm (bandwidth 75 nm), respectively. The FRET signal is calculated as follows: FRET=T730-Alexa730-P(T645-B645) with P=Ru730-B730/Ru645-B645, where T730 is the test well measured at 730 nM, T645 is the test well measured at 645 nm, B730 and B645 are the buffer controls at 730 nm and 645 nm, respectively. cAMP content is determined from the function of a standard curve spanning from 10 μM to 0.13 nM cAMP.
(§2) EC50 values were determined using Activity Base analysis (ID Business Solution, Limited).
Background: Cyclic AMP is a second messenger, typically raised through Gs and lowered through Gi signalling.

Another assay deals with human CB1 receptors (Homo sapiens (Human), UniProt P21554). Description: cAMP assay, CHO cells expressing human CB1 receptors. To be noted: functional cAMP assay, CHO cells expressing human CB1; read-out: EC50 CB1 human. The assay is classed as cell-based. How it is done:
as §1, §2

Chain of human CB1 receptors (P21554 whole entry): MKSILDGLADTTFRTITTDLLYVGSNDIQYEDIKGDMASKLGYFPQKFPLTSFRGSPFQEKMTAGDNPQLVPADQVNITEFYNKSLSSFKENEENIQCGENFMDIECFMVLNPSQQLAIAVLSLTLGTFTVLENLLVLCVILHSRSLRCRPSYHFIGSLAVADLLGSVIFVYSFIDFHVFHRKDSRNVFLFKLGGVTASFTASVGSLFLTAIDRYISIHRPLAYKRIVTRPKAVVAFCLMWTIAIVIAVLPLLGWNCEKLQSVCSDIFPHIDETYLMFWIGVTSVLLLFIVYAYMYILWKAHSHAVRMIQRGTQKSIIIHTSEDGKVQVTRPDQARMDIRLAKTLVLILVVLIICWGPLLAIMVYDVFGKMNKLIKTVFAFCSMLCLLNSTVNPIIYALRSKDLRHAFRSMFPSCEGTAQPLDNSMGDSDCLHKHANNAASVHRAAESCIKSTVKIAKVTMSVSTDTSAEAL
Chain of human CB2 receptors (P34972 whole entry): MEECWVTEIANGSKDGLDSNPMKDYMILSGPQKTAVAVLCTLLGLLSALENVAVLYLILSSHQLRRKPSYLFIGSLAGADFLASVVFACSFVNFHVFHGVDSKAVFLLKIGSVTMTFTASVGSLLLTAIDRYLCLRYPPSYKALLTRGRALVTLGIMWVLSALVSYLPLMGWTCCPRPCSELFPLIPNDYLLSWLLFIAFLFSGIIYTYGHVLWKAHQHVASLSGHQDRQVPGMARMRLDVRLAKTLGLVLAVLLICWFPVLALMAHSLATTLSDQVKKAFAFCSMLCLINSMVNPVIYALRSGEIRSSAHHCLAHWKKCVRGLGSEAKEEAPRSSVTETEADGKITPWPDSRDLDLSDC

As for `CCC1(CC)COC(c2cc(OCC(F)(F)F)c(N3CC(F)(F)C3)cn2)=N1` [Example 30, 2-[5-(3,3-difluoroazetidin-1-yl)-4-(2,2,2-trifluoroethoxy)pyridin-2-yl]-4,4-diethyl-5H-1,3-oxazole], the EC50 was 2.6 nM at human CB2 receptors and greater than 10000 nM on human CB1 receptors.
In the case of `CC(C)c1nc(-c2cc(OCC(F)(F)F)c(N3CC(F)(F)C3)cn2)no1` [Example 45, 3-[5-(3,3-difluoroazetidin-1-yl)-4-(2,2,2-trifluoroethoxy)pyridin-2-yl]-5-propan-2-yl-1,2,4-oxadiazole], the figures for the EC50 at human CB2 receptors and on human CB1 receptors were 77.8 nM and greater than 10000 nM, respectively.
For `CC(C)C1(C)N=C(c2cc(OCC(F)(F)F)c(C3CC3)cn2)NC1=O` (stereo not shown) [Example 66, 2-[5-cyclopropyl-4-(2,2,2-trifluoroethoxy)pyridin-2-yl]-4-methyl-4-propan-2-yl-1H-imidazol-5-one], the EC50 at human CB2 receptors was 9 nM; on human CB1 receptors, greater than 10000 nM.
For `CCC(COC)Oc1cc(-c2noc(C(C)(C)C)n2)ncc1C1CC1` (stereo not shown) [Example 84, 5-tert-butyl-3-[5-cyclopropyl-4-(1-methoxybutan-2-yloxy)pyridin-2-yl]-1,2,4-oxadiazole], the EC50 on human CB2 receptors is 50.1 nM; at human CB1 receptors it was greater than 10000 nM.
With `CCC1(CC)COC(c2cc(OCC3CC3)c(C3CC3)cn2)=N1` [Example 11, 2-[5-cyclopropyl-4-(cyclopropylmethoxy)pyridin-2-yl]-4,4-diethyl-5H-1,3-oxazole], the EC50 is 0.6 nM on human CB2 receptors and greater than 10000 nM on human CB1 receptors.
For `CC(C)(C)c1nc(-c2cc(N3CCCC3)c(C3CC3)cn2)no1` [Example 79, 5-tert-butyl-3-(5-cyclopropyl-4-pyrrolidin-1-ylpyridin-2-yl)-1,2,4-oxadiazole], the EC50 at human CB2 receptors was 9 nM; on human CB1 receptors, greater than 10000 nM.
As for `CC(C)(C)c1nc(-c2cc(OCC3CC3)c(S(C)(=O)=O)cn2)no1` [Example 43, 5-tert-butyl-3-[4-(cyclopropylmethoxy)-5-methylsulfonylpyridin-2-yl]-1,2,4-oxadiazole], the EC50 at human CB2 receptors was 40.9 nM; on human CB1 receptors, greater than 10000 nM.
On the same counts, the results for `CC(C)(C)c1nc(-c2cc(OCc3ccccn3)c(C3CC3)cn2)no1` [Example 117, 5-tert-butyl-3-[5-cyclopropyl-4-(pyridin-2-ylmethoxy)pyridin-2-yl]-1,2,4-oxadiazole] are 53.9 nM and greater than 10000 nM.
For `NC1(c2nc(-c3cc(OCC4CC4)c(C4CC4)cn3)no2)COC1` [Example 60, 3-[3-[5-cyclopropyl-4-(cyclopropylmethoxy)pyridin-2-yl]-1,2,4-oxadiazol-5-yl]oxetan-3-amine] the same measures were 448 nM and greater than 10000 nM.
`CC(C)(C)c1nc(-c2cc(N3CCC(F)(F)C3)c(C3CC3)cn2)no1` [Example 77, 5-tert-butyl-3-[5-cyclopropyl-4-(3,3-difluoropyrrolidin-1-yl)pyridin-2-yl]-1,2,4-oxadiazole]: the EC50 at human CB2 receptors was 2.1 nM; at human CB1 receptors, greater than 10000 nM.
For `CC(C)(C)c1nc(-c2cc(Oc3ccc(F)cc3)c(C3(F)COC3)cn2)no1` [Example 110, 5-tert-butyl-3-[5-(3-fluorooxetan-3-yl)-4-(4-fluorophenoxy)pyridin-2-yl]-1,2,4-oxadiazole] the same measures were 103 nM and greater than 10000 nM.
With `CC(C)(C)c1nc(-c2cc(N3CC(F)(F)C(F)(F)C3)c(C3CC3)cn2)no1` [Example 74, 5-tert-butyl-3-[5-cyclopropyl-4-(3,3,4,4-tetrafluoropyrrolidin-1-yl)pyridin-2-yl]-1,2,4-oxadiazole], the EC50 at human CB2 receptors was 4.7 nM; on human CB1 receptors, greater than 10000 nM.
For `OC1(c2nc(-c3cc(OCC4CC4)c(C4CC4)cn3)no2)CC1` [Example 23, 1-[3-[5-cyclopropyl-4-(cyclopropylmethoxy)pyridin-2-yl]-1,2,4-oxadiazol-5-yl]cyclopropan-1-ol] the same measures were 35.2 nM and greater than 10000 nM.
For `CC(C)(C)c1noc(-c2cc(OC3CCOCC3)c(C3CC3)cn2)n1` [Example 121, 3-tert-butyl-5-(5-cyclopropyl-4-(tetrahydro-2H-pyran-4-yloxy)pyridin-2-yl)-1,2,4-oxadiazole], the figures for the EC50 on human CB2 receptors and on human CB1 receptors were 1 nM and greater than 10000 nM, respectively.
In the case of `CC(C)(C)c1nc(-c2cc(OCC3(F)COC3)c(C3CC3)cn2)no1` [Example 105, 5-tert-butyl-3-[5-cyclopropyl-4-[(3-fluorooxetan-3-yl)methoxy]pyridin-2-yl]-1,2,4-oxadiazole], the EC50 was 29.1 nM on human CB2 receptors and greater than 10000 nM on human CB1 receptors.
In the case of `CC(C)(C)c1nnc(-c2cc(OC3CCOCC3)c(C3CC3)cn2)o1` [Example 98, 2-tert-butyl-5-[5-cyclopropyl-4-(oxan-4-yloxy)pyridin-2-yl]-1,3,4-oxadiazole], the results for the EC50 at human CB2 receptors and at human CB1 receptors were 42 nM and greater than 10000 nM, respectively.
In the case of `CC(C)(C)c1nc(-c2cc(OCc3cccnc3)c(C3CC3)cn2)no1` [Example 119, 5-tert-butyl-3-[5-cyclopropyl-4-(pyridin-3-ylmethoxy)pyridin-2-yl]-1,2,4-oxadiazole], the results for the EC50 on human CB2 receptors and on human CB1 receptors were 47 nM and greater than 10000 nM, respectively.
Regarding `C[C@@H](Oc1cc(-c2noc(C(C)(C)C)n2)ncc1C1CC1)C(F)(F)F` [Example 49, 5-tert-butyl-3-[5-cyclopropyl-4-[(2R)-1,1,1-trifluoropropan-2-yl]oxypyridin-2-yl]-1,2,4-oxadiazole], the EC50 is 51.5 nM at human CB2 receptors and greater than 10000 nM at human CB1 receptors.
In the case of `CC(C)(C)c1nc(-c2cc(OCC3COCCN3)c(C3CC3)cn2)no1` (stereo not shown) [Example 102, 3-[[2-(5-tert-butyl-1,2,4-oxadiazol-3-yl)-5-cyclopropylpyridin-4-yl]oxymethyl]morpholine], on human CB1 receptors, the EC50 is greater than 10000 nM.
Take `CC(C)(C)c1noc(-c2cc(OCC(F)(F)F)c(C3CC3)cn2)n1` [Example 40, 3-tert-butyl-5-[5-cyclopropyl-4-(2,2,2-trifluoroethoxy)pyridin-2-yl]-1,2,4-oxadiazole]: the EC50 is 2.2 nM at human CB2 receptors and greater than 10000 nM on human CB1 receptors.
For the molecule `CC(C)(C)c1noc(-c2cc(OCC3CC3)c(C3CC3)cn2)n1` [Example 6, 3-tert-butyl-5-[5-cyclopropyl-4-(cyclopropylmethoxy)pyridin-2-yl]-1,2,4-oxadiazole], the EC50 at human CB2 receptors turned out to be 1 nM; on human CB1 receptors, 9.2 nM.
Consider `CC1(c2nc(-c3cc(OCC4CC4)c(C4CC4)cn3)no2)CC1` [Example 24, 3-[5-cyclopropyl-4-(cyclopropylmethoxy)pyridin-2-yl]-5-(1-methylcyclopropyl)-1,2,4-oxadiazole], for which the EC50 worked out at 4.3 nM at human CB2 receptors and 581 nM at human CB1 receptors.
For `CC(C)(C)c1nc(-c2cc(N3CCC4(COC4)C3)c(C3CC3)cn2)no1` [Example 76, 7-[2-(5-tert-butyl-1,2,4-oxadiazol-3-yl)-5-cyclopropylpyridin-4-yl]-2-oxa-7-azaspiro[3.4]octane], the EC50 on human CB1 receptors is greater than 10000 nM.
As to `CC1(c2nc(-c3cc(OCC(F)(F)F)c(C4CC4)cn3)no2)CC1` [Example 34, 3-[5-cyclopropyl-4-(2,2,2-trifluoroethoxy)pyridin-2-yl]-5-(1-methylcyclopropyl)-1,2,4-oxadiazole], at human CB1 receptors, the EC50 is greater than 10000 nM.
With `c1c(C2=NC3(CCCCC3)CO2)ncc(C2CC2)c1OCC1CC1` [Example 22, 2-[5-cyclopropyl-4-(cyclopropylmethoxy)pyridin-2-yl]-3-oxa-1-azaspiro[4.5]dec-1-ene], the EC50 on human CB2 receptors amounted to 4.2 nM.
Consider `CC(C)(C)c1nc(-c2cc(OCC(F)(F)F)c(N3CC(F)(F)C3)cn2)no1` [Example 44, 5-tert-butyl-3-[5-(3,3-difluoroazetidin-1-yl)-4-(2,2,2-trifluoroethoxy)pyridin-2-yl]-1,2,4-oxadiazole], for which the EC50 at human CB1 receptors is greater than 10000 nM.
With `FC(F)(F)COc1cc(-c2nc(C3CC3)no2)ncc1C1CC1` [Example 7, 3-cyclopropyl-5-[5-cyclopropyl-4-(2,2,2-trifluoroethoxy)pyridin-2-yl]-1,2,4-oxadiazole], the EC50 at human CB1 receptors was greater than 10000 nM.
Turning to `CC(C)(C)c1nc(-c2cc(OCc3ccc(F)cc3)c(C3CC3)c(Cl)n2)no1` [Example 112, 5-tert-butyl-3-(6-chloro-5-cyclopropyl-4-(4-fluorobenzyloxy)pyridin-2-yl)-1,2,4-oxadiazole], the EC50 on human CB1 receptors is 73.2 nM.
With `CC(C)(O)c1nc(-c2cc(OCC3CC3)c(C3CC3)cn2)no1` [Example 26, 2-[3-[5-cyclopropyl-4-(cyclopropylmethoxy)pyridin-2-yl]-1,2,4-oxadiazol-5-yl]propan-2-ol], the EC50 on human CB1 receptors was greater than 10000 nM.
On the same count and under the same terms, the result for `CC(C)(C)c1noc(-c2cc(OCC(F)(F)F)c(N3CC(F)(F)C3)cn2)n1` [Example 17, 3-tert-butyl-5-[5-(3,3-difluoroazetidin-1-yl)-4-(2,2,2-trifluoroethoxy)pyridin-2-yl]-1,2,4-oxadiazole] reads greater than 10000 nM; that for `CC(C)(C)c1nnc(-c2cc(OCC(F)(F)F)c(C3CC3)cn2)o1` [Example 113, 2-tert-butyl-5-[5-cyclopropyl-4-(2,2,2-trifluoroethoxy)pyridin-2-yl]-1,3,4-oxadiazole], greater than 10000 nM.

Broadly, the EC50 is the concentration that produces a half-maximal response.
